The record followed here is ChEMBL document CHEMBL1151402, “Normaytancyprine, A Minor Antileukemic Ansa Macrolide From Putterlickia verrucosa” (1982).

In brackets after ≈: the same amount, converted by molar mass.

For one assay, the system named is P388. Description: In vivo cytotoxicity against mouse P388 cells at 0.4 to 12.5 mg/kg. It counts as functional. As to conditions: dose mg/kg 0.4-12.5.
A further assay relates to KB. The assay is described as follows: Cytotoxicity against human KB cells. In kind it is functional. Conditions: read-out: ED50 (the source's name).

`COc1cc2cc(c1Cl)NC(=O)C[C@H](OC(=O)[C@H](C)N(C)C(=O)C1C(C)C1C)[C@]1(C)O[C@H]1[C@H](C)[C@@H]1C[C@@](O)(NC(=O)O1)[C@H](OC)/C=C/C=C(\C)C2` (some centres not stated) [NORMAYTANCYPRINE] returned a T/C with P388 of 145%. The EC50 in the assay on KB amounted to 0.001 ng/mL (≈ 0.00137 nM).

As usually defined, the T/C is the result in the treated group divided by that in the control group, in per cent.
